Reference: article PMC10373114, “CDK2 regulates collapsed replication fork repair in CCNE1-amplified ovarian cancer cells via homologous recombination” (NAR Cancer, 2023)
One block for each compound: values may come before it.

Experiments:
OVCAR-3 cells [1] = experiment: Proliferative recovery after HU-induced replication fork collapse (IncuCyte confluence); format: cell-based, human; details: 500 nM, HU 2 mM 24 h pulse
Description: Figure S2. Replication fork stall signaling is dependent on CDK2, HR in CCNE1 - […]
(A) Cyclin E1 protein expression is strongly associated with CCNE1 copy number […]
amplification among TCGA patients with ovarian cancer (n=304) (Welch Two Sample t- […]
test, P = 2.3E-13). (B) Chemical structures of BLU1851. (C) Kinome tree for BLU1851 […]
at 3 µM (S-Score = 0.050). (D) Dose-response curves for BLU1851 enzyme inhibition […]
for indicated CDK family members. Error bars represent SD of at least duplicate independent experiments. (E) NanoBRET assessment of BLU1851 target engagement […]
in indicated CDK complexes expressed in HEK-293 cells. Error bars represent SD of at […]
least duplicate independent experiments. (F) Dose-response curve for pRb T821/826 […]
inhibition by BLU1851 in OVCAR-3 cells. Error bars represent SD of at least duplicate independent experiments. (G) Dose-response curve for pLamin S22 inhibition by BLU1851 in OVCAR-3 and COV644 cells. Error bars represent SD of duplicate independent experiments. (H) Dose-response curves in MCF-7, OVCAR-3 cells. […] (I) Quantification of pCHK1 S317 normalized to […]
allowed to recover in the presence of rabusertib. Confluence was calculated using […]
confluency at experimental endpoint. Confluence was measured by IncuCyte live cell […]
imaging and values were determined using an algorithm to detect cells from phase- […]

[2] = test system: CtIP bandshift and pRPA S4/8; experiment: Western blot of HR signaling after etoposide; format: cell-based; details: 1 μM RO-3306 or 10 μM roscovitine, 24 h before 50 μM etoposide 2 h
Description: Cells were lysed in PhosphoSafe Lysis Buffer (EDM millipore, Cat#71296) and protein was quantified using the Pierce BCA Gold Kit (Thermo Fisher Scientific Cat#A53227). Lysate and lysis buffer were combined with 4× Loading Dye (Bio-Rad, Cat#1610747) and 2ME (Bio-Rad, Cat#1610710). Samples were loaded into Bio-Rad 4–20% Tris-glycine, 18-well SDS-PAGE (Cat#5671094). Transfer was performed using Bio-Rad dry transfer system (Trans-Blot Turbo) (Nitrocellulose membrane, 0.2 μM). Blocking was performed using LI-COR Odyssey Blocking Buffer (Cat#927–70001). Primary antibodies (CDK2 1:500, p16 1:1000, CCNE1 1:500, pRbT821 1:500, Actin R 1:2000, p21 1:1000, CCNA2 1:500, pRb S807/811 1:1000, pRb S780 1:500, CtIP 1:1000, Actin M 1:5000, pH2A.X Ser139 1:1000, pCDK2 T160 1:1000, pRPA S4/8 1:1000, CDK1 1:1000, pCDK1 Y15 1:1000, pChk1 S317 1:500, Total Chk1 1:1000, Tubulin 1:10 000) were combined with Odyssey Blocking Buffer and 0.1% Tween-20, and incubated at 4°C, rotating. Secondary antibodies were combined with Odyssey Blocking Buffer and 0.1% Tween-20 and incubated at room temperature, rotating. All secondary antibodies were diluted to 1:10 000 (LI-COR Cat#926–33212, Cat#926-33213, Cat#926-68070, Cat#926–68071, Cat#926–68076). Signals were detected using LI-COR Odyssey CLx Imaging Studio.

[3] = test system: homologous recombination (3X-FLAG ACTB reporter); experiment: CRISPR/Cas9 recombination assay; format: cell-based, human; details: 25 or 250 nM BLU1851, 10 μM roscovitine; 72 h
Description: pBluescript SK II + and LentiCRISPR v2 plasmids were purchased from Genscript. LentiCRISPR v2 plasmids expressing single guide (sgRNA) against ACTB or scrambled sgRNA were constructed according to the depositor's instructions. To construct HR donor vectors against ACTB, sequences from −1554 to +1527 relative to the stop codon of ACTB plus 3× FLAG directly 5’ from the stop codon were synthesized and cloned into pBluescript SK II using restriction digest and ligation. Compounds were added to cells on the day of plasmid transfection. sgRNA/Cas9 and the donor plasmid were prepared in a 1:2 molar ratio; 1 μg of total DNA/well was transfected onto cells using Lipofectamine 2000 (Thermo Fisher Scientific Cat#11668019). Cells were harvested for Western Blot analysis 72 h later.

kinases tested (n = 468) = experiment: KINOMEscan kinome selectivity; format: binding; details: fraction of kinases with <10% of control at 3 μM among 468 kinases tested
MCF-7 cells = experiment: CyQuant proliferation assay; format: cell-based; details: Homo sapiens, MCF7, 120 h, read-out: MCF-7 IC50
Description: (§1) OVCAR-3, COV644, or MCF-7 cells were seeded at 1000 cells/well in 384-well black, clear bottom plates and allowed to adhere overnight at 37°C/5% CO2. The following day, cells were treated with compound in a 10-point dose response, 1:4 dilutions. After 5 days of incubation, CyQuant Direct Proliferation Assay was performed according to the manufacturer's instructions. Data were processed with GraphPad Prism using a four-parameter fit to calculate IC50.

OVCAR-3 cells [4] = experiment: CyQuant proliferation assay; format: cell-based, human; details: 5 days
Description: as §1

COV644 cells = experiment: CyQuant proliferation assay; format: cell-based, human; details: 5 days
Description: as §1

Structure (SMILES): Cc1cnc(NC(=O)Nc2cc(Br)c(C)cc2OC[C@@H]2CNCCO2)cn1 [rabusertib]
proliferation following HU treatment (OVCAR-3 cells [1]): suppressed the ability of OVCAR-3 cells to proliferate following HU treatment

Structure (SMILES): CC[C@H](CO)Nc1nc(NCc2ccccc2)c2ncn(C(C)C)c2n1 [roscovitine]
HR signaling across cell lines tested [2]: suppressed HR signaling in most cell lines tested
recombination (3X-FLAG product) [3]: inhibited recombination in all cell lines

Structure (SMILES): CC(=O)c1c(C)c2cnc(Nc3ccc(N4CCNCC4)cn3)nc2n(C2CCCC2)c1=O [Palbociclib, reference compound]
Kinome S (10) (kinases tested (n = 468)): 0.041
IC50 (MCF-7 cells): 150 nM

sensitivity of OVCAR-3 cells compared with COV644 cells (proliferative IC50) (OVCAR-3 cells [4]): more sensitive
Structure (SMILES): N=C1NC(=O)/C(=C/c2ccc(O)cc2)S1 [mirin]

Structure (SMILES): COC1=C(N)C(=O)c2nc(-c3nc(C(=O)O)c(C)c(-c4ccc(OC)c(OC)c4O)c3N)ccc2C1=O [streptonigrin]
sensitivity of OVCAR-3 cells compared with COV644 cells (proliferative IC50) (OVCAR-3 cells [4]): more sensitive

Structure (SMILES): O=C1NC(=NCc2cccs2)S/C1=C\c1ccc2ncccc2c1 [RO-3306]
HR signaling across cell lines tested [2]: only a small effect in some cell lines

Structure (SMILES): CC(C)CC(=O)c1c(Nc2ccc(Cl)cc2Cl)[nH]c2c(Cl)ccc([N+](=O)[O-])c2c1=O [JH-RE-06]
sensitivity of COV644 cells compared with OVCAR-3 cells (proliferative IC50) (COV644 cells): more sensitive
